From ChEMBL document CHEMBL4507268 (2021)

Assays:
Details in all cases: Compound concentration 1.0 uM
[1] = target: Serine/threonine-protein kinase 25 (Homo sapiens) (UniProt O00506)
[2] = target: T1, Mitogen-activated protein kinase kinase kinase 2 (Homo sapiens) (UniProt Q9Y2U5)
T1 sequence (whole entry): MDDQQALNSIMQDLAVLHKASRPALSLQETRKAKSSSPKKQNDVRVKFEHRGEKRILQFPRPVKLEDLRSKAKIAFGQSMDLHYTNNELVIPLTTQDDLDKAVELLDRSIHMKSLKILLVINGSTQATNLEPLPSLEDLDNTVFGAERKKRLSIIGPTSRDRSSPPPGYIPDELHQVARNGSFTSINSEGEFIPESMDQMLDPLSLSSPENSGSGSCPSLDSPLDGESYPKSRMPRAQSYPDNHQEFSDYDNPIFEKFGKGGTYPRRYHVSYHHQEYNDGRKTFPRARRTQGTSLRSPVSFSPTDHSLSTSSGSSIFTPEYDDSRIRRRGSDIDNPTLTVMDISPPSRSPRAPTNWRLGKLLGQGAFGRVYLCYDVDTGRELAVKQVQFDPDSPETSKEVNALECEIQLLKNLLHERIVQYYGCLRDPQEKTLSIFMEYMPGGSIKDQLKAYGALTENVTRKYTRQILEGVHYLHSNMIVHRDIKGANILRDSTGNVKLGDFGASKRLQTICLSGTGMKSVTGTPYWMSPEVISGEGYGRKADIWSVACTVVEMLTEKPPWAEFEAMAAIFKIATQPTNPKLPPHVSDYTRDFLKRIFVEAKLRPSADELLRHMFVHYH

[3] = target: T2, Tyrosine-protein kinase ITK/TSK (Homo sapiens) (UniProt Q08881)
T2 sequence (whole entry): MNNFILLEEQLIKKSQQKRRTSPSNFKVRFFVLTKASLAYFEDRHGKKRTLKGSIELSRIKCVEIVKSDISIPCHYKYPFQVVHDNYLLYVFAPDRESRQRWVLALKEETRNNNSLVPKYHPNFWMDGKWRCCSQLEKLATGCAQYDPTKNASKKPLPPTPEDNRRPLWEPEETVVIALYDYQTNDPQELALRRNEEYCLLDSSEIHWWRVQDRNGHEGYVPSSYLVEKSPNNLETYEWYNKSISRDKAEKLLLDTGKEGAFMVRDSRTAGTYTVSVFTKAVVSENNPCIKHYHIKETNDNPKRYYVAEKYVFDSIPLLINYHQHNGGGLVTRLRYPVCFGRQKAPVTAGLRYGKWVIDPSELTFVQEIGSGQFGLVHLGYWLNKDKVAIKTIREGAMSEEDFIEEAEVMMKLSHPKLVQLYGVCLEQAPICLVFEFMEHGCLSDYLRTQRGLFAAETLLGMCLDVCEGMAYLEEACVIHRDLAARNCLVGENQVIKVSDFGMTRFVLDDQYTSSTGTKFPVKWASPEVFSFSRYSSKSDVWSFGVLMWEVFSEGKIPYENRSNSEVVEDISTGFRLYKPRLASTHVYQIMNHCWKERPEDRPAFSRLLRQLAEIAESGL

[4] = target: T3, Tyrosine-protein kinase Tec (Homo sapiens) (UniProt P42680)
T3 sequence (whole entry): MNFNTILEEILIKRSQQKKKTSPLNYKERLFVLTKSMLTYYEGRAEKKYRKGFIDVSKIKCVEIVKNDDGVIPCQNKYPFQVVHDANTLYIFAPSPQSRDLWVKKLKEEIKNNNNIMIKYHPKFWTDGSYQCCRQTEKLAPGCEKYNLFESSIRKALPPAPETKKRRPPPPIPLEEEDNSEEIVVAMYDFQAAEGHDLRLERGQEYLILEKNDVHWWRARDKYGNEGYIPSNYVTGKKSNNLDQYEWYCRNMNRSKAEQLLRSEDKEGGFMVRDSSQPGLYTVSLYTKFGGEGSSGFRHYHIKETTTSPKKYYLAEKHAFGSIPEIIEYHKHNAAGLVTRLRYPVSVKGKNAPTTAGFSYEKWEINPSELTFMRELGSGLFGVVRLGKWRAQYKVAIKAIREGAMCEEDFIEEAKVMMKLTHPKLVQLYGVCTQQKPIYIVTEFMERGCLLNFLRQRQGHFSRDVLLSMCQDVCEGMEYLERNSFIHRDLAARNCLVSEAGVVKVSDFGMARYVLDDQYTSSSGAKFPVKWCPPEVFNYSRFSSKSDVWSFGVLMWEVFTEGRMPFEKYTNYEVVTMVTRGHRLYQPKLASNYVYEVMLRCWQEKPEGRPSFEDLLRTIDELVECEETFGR

[5] = target: Casein kinase I isoform gamma-3 (Homo sapiens) (UniProt Q9Y6M4)
[6] = target: Homeodomain-interacting protein kinase 3 (Homo sapiens) (UniProt Q9H422)
[7] = target: Serine/threonine-protein kinase mTOR (Homo sapiens) (UniProt P42345)
[8] = target: CDK6/cyclin D3 (Homo sapiens) (UniProt P30281+Q00534)
[9] = target: Calcium/calmodulin-dependent protein kinase kinase 2 (Homo sapiens) (UniProt Q96RR4)
[10] = target: Serine/threonine-protein kinase PAK 5 (Homo sapiens) (UniProt Q9P286)

Measured: % residual kinase activity

Chain of Casein kinase I isoform gamma-3 (Homo sapiens) (Q9Y6M4 whole entry, looked up, canonical isoform): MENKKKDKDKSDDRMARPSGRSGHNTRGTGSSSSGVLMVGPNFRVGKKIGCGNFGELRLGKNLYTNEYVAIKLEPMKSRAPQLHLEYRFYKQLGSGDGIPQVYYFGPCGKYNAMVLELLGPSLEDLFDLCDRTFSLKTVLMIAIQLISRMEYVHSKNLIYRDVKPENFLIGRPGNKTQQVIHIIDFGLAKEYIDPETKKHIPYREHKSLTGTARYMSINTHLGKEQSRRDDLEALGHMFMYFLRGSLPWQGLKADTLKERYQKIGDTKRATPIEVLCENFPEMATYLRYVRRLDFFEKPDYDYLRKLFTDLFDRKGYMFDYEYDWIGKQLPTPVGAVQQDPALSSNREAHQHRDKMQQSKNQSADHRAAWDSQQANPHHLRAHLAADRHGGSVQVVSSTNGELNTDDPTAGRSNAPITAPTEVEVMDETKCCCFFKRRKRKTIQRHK
Chain of Serine/threonine-protein kinase 25 (Homo sapiens) (O00506 whole entry, looked up): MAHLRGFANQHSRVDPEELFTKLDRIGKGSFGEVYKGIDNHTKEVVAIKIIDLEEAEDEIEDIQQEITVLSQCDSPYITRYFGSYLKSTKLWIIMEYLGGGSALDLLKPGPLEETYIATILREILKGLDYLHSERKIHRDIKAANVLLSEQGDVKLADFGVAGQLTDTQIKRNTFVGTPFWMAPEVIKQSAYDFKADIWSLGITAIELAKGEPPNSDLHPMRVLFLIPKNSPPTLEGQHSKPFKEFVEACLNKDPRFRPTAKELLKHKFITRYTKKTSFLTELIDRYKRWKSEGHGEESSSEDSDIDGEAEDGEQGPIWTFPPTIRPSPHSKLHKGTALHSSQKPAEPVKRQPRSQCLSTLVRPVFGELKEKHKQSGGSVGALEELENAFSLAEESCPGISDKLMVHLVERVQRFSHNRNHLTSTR
Chain of Homeodomain-interacting protein kinase 3 (Homo sapiens) (Q9H422 whole entry, looked up): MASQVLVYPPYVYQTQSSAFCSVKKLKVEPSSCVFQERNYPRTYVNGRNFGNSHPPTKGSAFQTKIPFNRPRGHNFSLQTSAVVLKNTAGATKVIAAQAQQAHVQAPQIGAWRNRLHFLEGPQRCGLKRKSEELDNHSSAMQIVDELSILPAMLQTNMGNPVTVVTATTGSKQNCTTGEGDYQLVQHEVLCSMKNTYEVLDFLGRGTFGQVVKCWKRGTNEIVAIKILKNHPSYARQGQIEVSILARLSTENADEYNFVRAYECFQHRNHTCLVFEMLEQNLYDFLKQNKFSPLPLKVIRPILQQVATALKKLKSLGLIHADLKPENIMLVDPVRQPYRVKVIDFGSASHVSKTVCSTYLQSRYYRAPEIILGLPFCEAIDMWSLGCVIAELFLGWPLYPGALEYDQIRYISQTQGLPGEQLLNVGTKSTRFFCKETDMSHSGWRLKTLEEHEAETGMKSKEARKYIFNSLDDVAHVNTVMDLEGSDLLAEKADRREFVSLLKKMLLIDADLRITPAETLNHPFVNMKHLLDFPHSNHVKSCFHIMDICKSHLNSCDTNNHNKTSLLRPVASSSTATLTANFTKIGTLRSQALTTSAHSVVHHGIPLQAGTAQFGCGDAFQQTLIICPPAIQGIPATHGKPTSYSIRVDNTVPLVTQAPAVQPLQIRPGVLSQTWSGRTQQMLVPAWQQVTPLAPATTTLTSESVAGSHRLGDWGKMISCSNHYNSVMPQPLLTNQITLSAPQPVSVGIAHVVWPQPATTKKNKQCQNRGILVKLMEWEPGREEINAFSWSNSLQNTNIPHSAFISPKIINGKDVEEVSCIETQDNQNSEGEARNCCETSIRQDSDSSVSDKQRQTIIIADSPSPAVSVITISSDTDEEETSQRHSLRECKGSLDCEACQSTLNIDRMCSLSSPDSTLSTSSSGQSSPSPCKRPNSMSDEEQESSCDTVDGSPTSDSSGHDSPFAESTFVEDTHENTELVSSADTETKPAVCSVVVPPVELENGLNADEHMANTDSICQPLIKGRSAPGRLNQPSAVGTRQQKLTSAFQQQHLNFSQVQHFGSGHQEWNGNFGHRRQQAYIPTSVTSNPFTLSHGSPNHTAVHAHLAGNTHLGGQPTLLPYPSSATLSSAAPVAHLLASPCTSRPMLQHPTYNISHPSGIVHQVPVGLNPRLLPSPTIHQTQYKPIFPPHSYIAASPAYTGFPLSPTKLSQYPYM
Chain of Calcium/calmodulin-dependent protein kinase kinase 2 (Homo sapiens) (Q96RR4 2-588 limits assumed): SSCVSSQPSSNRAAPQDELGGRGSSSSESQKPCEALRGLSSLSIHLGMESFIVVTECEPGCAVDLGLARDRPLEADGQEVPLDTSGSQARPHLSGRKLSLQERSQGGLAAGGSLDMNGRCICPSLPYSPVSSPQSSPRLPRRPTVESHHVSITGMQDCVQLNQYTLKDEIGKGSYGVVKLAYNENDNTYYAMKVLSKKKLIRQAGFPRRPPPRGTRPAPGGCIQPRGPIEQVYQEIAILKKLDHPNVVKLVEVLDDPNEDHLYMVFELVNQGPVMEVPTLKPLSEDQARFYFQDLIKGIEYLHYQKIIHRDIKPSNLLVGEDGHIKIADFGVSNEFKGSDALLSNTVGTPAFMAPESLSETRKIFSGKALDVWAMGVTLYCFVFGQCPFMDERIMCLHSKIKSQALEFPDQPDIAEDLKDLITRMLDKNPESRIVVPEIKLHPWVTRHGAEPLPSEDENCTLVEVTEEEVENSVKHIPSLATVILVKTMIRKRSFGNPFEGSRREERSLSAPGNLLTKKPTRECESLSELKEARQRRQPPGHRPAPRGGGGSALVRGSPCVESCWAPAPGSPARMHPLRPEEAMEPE
Chain of Serine/threonine-protein kinase PAK 5 (Homo sapiens) (Q9P286 whole entry, looked up): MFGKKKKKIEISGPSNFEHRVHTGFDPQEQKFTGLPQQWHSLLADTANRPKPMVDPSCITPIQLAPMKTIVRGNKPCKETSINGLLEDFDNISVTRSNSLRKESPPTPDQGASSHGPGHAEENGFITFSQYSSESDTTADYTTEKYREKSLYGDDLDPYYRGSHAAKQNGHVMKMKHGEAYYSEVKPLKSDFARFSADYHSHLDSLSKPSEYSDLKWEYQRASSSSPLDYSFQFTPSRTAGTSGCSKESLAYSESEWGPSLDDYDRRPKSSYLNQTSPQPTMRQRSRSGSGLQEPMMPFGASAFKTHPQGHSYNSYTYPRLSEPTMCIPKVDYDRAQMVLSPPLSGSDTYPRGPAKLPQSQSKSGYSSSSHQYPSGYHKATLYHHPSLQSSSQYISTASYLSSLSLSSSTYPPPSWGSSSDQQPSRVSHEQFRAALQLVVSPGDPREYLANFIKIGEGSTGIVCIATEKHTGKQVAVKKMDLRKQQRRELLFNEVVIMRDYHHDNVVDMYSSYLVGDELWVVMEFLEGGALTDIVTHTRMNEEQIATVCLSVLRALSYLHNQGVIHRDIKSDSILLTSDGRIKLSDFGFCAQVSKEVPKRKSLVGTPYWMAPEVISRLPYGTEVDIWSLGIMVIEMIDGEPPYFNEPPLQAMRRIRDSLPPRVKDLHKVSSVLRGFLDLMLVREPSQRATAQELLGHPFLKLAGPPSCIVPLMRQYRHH

CN1CCN(c2cnc3c(C4CCN(C(=O)c5ccc(OC(F)(F)F)cc5N)CC4)ncnc3c2)CC1 [BAY-885]
inactive: [1] 87% | [2] 116% | [3] 105% | [4] 112% | [5] 96% | [6] 108% | [7] 104% | [8] 96% | [9] 102% | [10] 115%
